Series [1] deals with TNF-α. The series is described as follows: Screening of TNF-α inhibitory effect, LPS-stimulated PBMC-derived monocytes (Example 2). The series is classed as cell-based, human. Particulars: 4 uM peptide, 2 hrs, LPS 10 ng/ml; for TNF-α inhibiting effect compared to the group treated with LPS and estrogen: estrogen 20 nM. A digest of the protocol:
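Human PBMC-derived monocytes (1 × 10^5/well) stimulated with LPS 10 ng/ml for 2 h, starved 1 h in OPTI-MEM, then treated with 4 µM peptide for 2 h. Secreted TNF-α quantified by ELISA against untreated, estradiol (20 nM) and LPS controls.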

Series [2] deals with TNF-α. The series is described as follows: Screening of TNF-α level in PMA-differentiated THP-1 cell line after LPS. The class given is cell-based, human. Particulars: 1 µM peptide, one hour; LPS 10 ng/ml. How it is done: Experiment was carried out using THP-1 cell line (American Type Culture Collection (ATCC), Manassas, VA, USA) which is human acute monocytic leukemia.
THP-1 cells were incubated to reach the number of 1 × 10^5 cells per well in a 96-well plate with RPMI 1640 medium for 24 hrs, followed by addition of 100 uM of PMA (phorbol 12-myristate 13-acetate) for the differentiation into macrophage. After differentiation of THP-1 into macrophage by PMA for a day, LPS was treated for 2 hrs and washed off. Starvation for an hour and PEP1 treatment followed.
THP-1 cell differentiated by PMA was treated with LPS (lipopolysaccharide; 10 ng/ml, Sigma) for 2 hours, followed by 2 times washes with PBS. To the cells, OPTI-MEM culture medium was added to induce cell starvation for an hour, and 1 µM of 179 peptides was taken out and incubated for an hour. After incubation, TNF-α level was measured by using the ELISA kit and the peptides which reduce the TNF-α level were screened (FIG. 24 to FIG. 46).

Series [3] concerns TNF-α. The series is described as follows: TNF-α ELISA, LPS-stimulated PBMC-derived monocytes (Example 1). Particulars: LPS 10 ng/ml 2 hrs, starved 1 hr, 4 uM for 2 hrs; cell culture medium. The class given is cell-based, human. The procedure:
PBMC (peripheral blood mononuclear cell) was separated from the blood samples (50ml) collected from healthy subjects using Ficoll-PaqueTM PLUS (GE Healthcare Life Sciences, Piscataway, NJ, USA). PBMCs were then enriched in complete RPMI 1640 medium containing 20% of human serum, followed by transferring to 100 mm polystyrene cell culture plate coated with human serum for 30 mins. […]
To see the effect of PEP-1 on TNF-α level in terms of protein expression level, ELISA (enzyme linked immunosorbent assay) was performed. […] After culturing, cell soup was collected, and the amount of TNF-α was measured using ELISA kit (R&D, Minneapolis, MN, USA) as follows:
TNF measurement uses sandwich ELISA method. […] Again, plate was washed, and avidin/biotin was added for measuring the absorbance. TNF-α level of each sample was quantified using the standard graph calculated from the absorbance of standard solution.
PBMC-derived monocytes were stimulated with endotoxin LPS (10 ng/ml) for 2 hrs, starved for 1 hr using OPTI-MEM, and then 4 uM of FITC, FITC-TAT, PEP 1-FITC and FITC-PEP 1 were treated for 2 hrs. After incubation, TNF-α level was measured with cell culture medium using ELISA.

Another series relates to neural stem cells. Put plainly: Amyloid-β toxicity assessment on neural stem cells. The class given is cell-based, rat. Particulars: 20 µM amyloid-β protein, 48 hours.
Another series deals with HSP 70. Put plainly: 2D-electrophoresis protein expression in neural stem cells: HSP 70. The series is classed as cell-based, rat. Particulars: β-amyloid alone; negative control 1.0. How it is done:
(§1) Protein expression level of PEP-1 treated group and untreated group was analyzed by 2D-electrophoresis technique and antibody microarray technique. Prepared 200ug by extracting proteome from the neural stem cells cultured in Experiment 1-1 of example 3. In addition, the group in which PEP-1 was not treated was used as the comparison group in the same condition.
(§2) 2D-electrophoresis was performed using 12% acrylamide gels. First gel electrophoresis was performed at Pl 4~10N, using a gel size of 8.5×7cm. After electrophoresis, it was dyed with Colloidal Coomassie Blue, and then compared expression by using PDQuest software to analyze each spot.
(§3) Difference in the expression levels of more than 1.5 times was identified using MALDI-TOF MS (Matrix Desoprtion/lionization Time of Flight Mass Spectromestry). Among these, proteins correlated with inflammation-related signaling, such as i-NOS and HMGB-1 were identified (Refer to Table 6). The changes in protein expression levels either increased or decreased by 1.5 times by amyloid-β protein, but it was confirmed that expression level was regulated close to that of negative control when PEP-1 was added (Refer to FIG. 57).
(§4) The Table 6 below is an analysis of expression levels of proteins associated with inflammation by 2D electrophoresis technique. […]

A further series relates to HSP 90. Put plainly: 2D-electrophoresis protein expression in neural stem cells: HSP 90. The settings on record: β-amyloid alone; negative control 1.0. The class given is cell-based, rat. The procedure: as §1, §2, §3, §4
The subject of the next series is HHGB1. The series is described as follows: 2D-electrophoresis protein expression in neural stem cells: HHGB1. The series is classed as cell-based, rat. Particulars: β-amyloid alone; negative control 1.0. The procedure: as §1, §2, §3, §4
The subject of the next series is GAUD 153. The series is described as follows: 2D-electrophoresis protein expression in neural stem cells: GAUD 153. The settings on record: β-amyloid alone; negative control 1.0. The class given is cell-based, rat. How it is done: as §1, §2, §3, §4
Another series relates to i-N0S. The series is described as follows: 2D-electrophoresis protein expression in neural stem cells: i-N0S. The class given is cell-based, rat. The settings on record: β-amyloid alone; negative control 1.0. The procedure: as §1, §2, §3, §4
The test system of the next series is e-N0S. The series is described as follows: 2D-electrophoresis protein expression in neural stem cells: e-N0S. The class given is cell-based, rat. The settings on record: β-amyloid alone; negative control 1.0. The procedure: as §1, §2, §3, §4
The subject of another series is Pyk2. Put plainly: 2D-electrophoresis protein expression in neural stem cells: Pyk2. The class given is cell-based, rat. The settings on record: β-amyloid alone; negative control 1.0. The procedure: as §1, §2, §3, §4
The next series relates to MAP Kinase. Put plainly: 2D-electrophoresis protein expression in neural stem cells: MAP Kinase. The class given is cell-based, rat. Particulars: β-amyloid alone; negative control 1.0. The procedure: as §1, §2, §3, §4

Consider “ARPALLTSRL (listed as Homo sapiens) [SEQ ID NO: 113]”, for which the “TNF-α inhibiting effect compared to the control group treated with only LPS” value in the series with TNF-α [1] is “showed TNF-α inhibiting effect”. The “expression level of TNF-α compared to group treated with LPS and estrogen” value with TNF-α [2] is given as “reduce the expression level of TNF-α”.
The corresponding values for “ARPALLTSRLR (listed as Homo sapiens) [SEQ ID NO: 112]” are “showed TNF-α inhibiting effect” and “reduce the expression level of TNF-α”.
As to “EARPALLTSRLRFIPKPDGLRPIVNM (listed as Homo sapiens) [SEQ ID NO: 73]”, in the series with TNF-α [1], the “TNF-α inhibiting effect compared to the control group treated with only LPS” value is listed as “showed TNF-α inhibiting effect”; the “TNF-α inhibiting effect compared to the group treated with LPS and estrogen” value was “showed TNF-α inhibiting effect”. For the same substance, the “TNF-α level compared to control group treated only with LPS” value in the series with TNF-α [2] was “reduce the TNF- α level”.
Substance Fluorescein Isothiocyanate [FITC] gave a TNF-α level with TNF-α [3] of 6.2 ng/mL.
Take “HREARPALLTSRLRFIPKPDGL (listed as Homo sapiens) [SEQ ID NO: 30]”: the “expression level of TNF-α compared to group treated with LPS and estrogen” value in the series on TNF-α [2] was “reduce the expression level of TNF-α”.
For “LTSR (listed as Homo sapiens) [SEQ ID NO: 109]”, in the series with TNF-α [1], the “TNF-α inhibiting effect compared to the control group treated with only LPS” value is “showed TNF-α inhibiting effect”; the “TNF-α inhibiting effect compared to the group treated with LPS and estrogen” value was “showed TNF-α inhibiting effect”. In the series on TNF-α [2], the “TNF-α level compared to control group treated only with LPS” value is recorded as “reduce the TNF- α level”.
“QHREARPALLTSRLRFIPKPDGLR (listed as Homo sapiens) [SEQ ID NO: 38]”: the “TNF-α inhibiting effect compared to the control group treated with only LPS” value in the series on TNF-α [1] was “showed TNF-α inhibiting effect”. Also, the “TNF-α level compared to control group treated only with LPS” value with TNF-α [2] was “reduce the TNF- α level”.
Take “REARPALLTSRLRFIPK (listed as Homo sapiens) [SEQ ID NO: 2]”: the “expression level of TNF-α compared to group treated with LPS and estrogen” value in the series with TNF-α [2] is reported as “reduce the expression level of TNF-α”.
As to “RQHREARPALLTSRLRFIPK (listed as Homo sapiens) [SEQ ID NO: 5]”, in the series with TNF-α [2], the “TNF-α level compared to control group treated only with LPS” value is “reduce the TNF- α level”.
As for “VRQHREARPALLTSRLRFIPKPDGLR (listed as Homo sapiens) [SEQ ID NO: 36]”, the “TNF-α inhibiting effect compared to the control group treated with only LPS” value with TNF-α [1] is “showed TNF-α inhibiting effect”. The “TNF-α level compared to control group treated only with LPS” value with TNF-α [2] is “reduce the TNF- α level”.
Consider amyloid-β protein, for which, in the series on neural stem cells, the cell survival is on record as 60%. In addition, in the series with HSP 70, the “HSP 70 expression, 20ug β -amyloid treated group (fold)” value is reported as -2.3 fold. The “HSP 90 expression, 20ug β -amyloid treated group (fold)” value with HSP 90 was -1.8 fold. For the same substance, in the series with HHGB1, the “HHGB1 expression, 20ug β -amyloid treated group (fold)” value is -1.5 fold. Besides, in the series with GAUD 153, the “GAUD 153 expression, 20ug β -amyloid treated group (fold)” value came to 1.6 fold. The “i-N0S expression, 20ug β -amyloid treated group (fold)” value in the series with i-N0S is 1.9 fold. Further, the “e-N0S expression, 20ug β -amyloid treated group (fold)” value in the series on e-N0S is 1.9 fold. The “Pyk2 expression, 20ug β -amyloid treated group (fold)” value in the series with Pyk2 is listed as 2.0 fold. In the series with MAP Kinase, the “MAP Kinase expression, 20ug β -amyloid treated group (fold)” value came to 2.2 fold.

The values above are taken from US20230293644A1, “ANTI-INFLAMMATORY PEPTIDES AND COMPOSITION COMPRISING THE SAME” (Gemvax & KAEL Co., Ltd., priority 2012, published 2023).
